Publication PMC7737538 (ACS Medicinal Chemistry Letters, 2020)

Key:
[1] = test system: VZV TK+ strain (strain Oka); assay type: cell-based, varicella zoster virus; settings: HEL fibroblasts; strain not given
[2] = test system: HCMV AD-169 strain; assay: HCMV antiviral assay in HEL fibroblasts, AD-169 strain; assay type: cell-based, human cytomegalovirus; settings: strain not given
[3] = test system: SARS-CoV-2 (two clinical isolates); assay: SARS-CoV-2 antiviral assay in Vero cells, statements without strain; assay type: cell-based
[4] = test system: Vero cells; settings: readout not given
[5] = in vitro; settings: human
[6] = test system: human rhinovirus (HRV); settings: read-out: EC50 against human rhinovirus (HRV); in vitro; cited from earlier work

Row | SMILES | activity against VZV (in words) [1] | activity against HCMV (in words) [2] | antiviral activity against SARS-CoV-2 (in words) [3] | cytotoxicity in Vero cells (in words) [4] | also measured
1 | CO[C@]1(CO)O[C@@H](n2ccc(N)nc2=O)C(F)(F)[C@@H]1O [1a] | completely devoid of activity | completely devoid of activity | devoid of antiviral activity | devoid of antiviral activity and cytotoxicity | 
2 | Nc1ccn([C@@H]2O[C@](F)(CO)[C@@H](O)C2(F)F)c(=O)n1 [1b] |  |  | no selective antiviral activity |  | 
3 | CO[C@]1(COP(=O)(N[C@@H](C)C(=O)OCc2ccccc2)Oc2ccccc2)O[C@@H](n2ccc(N)nc2=O)C(F)(F)[C@@H]1O (some centres unmarked) [2a] |  |  | devoid of antiviral activity | devoid of antiviral activity and cytotoxicity | 
4 | C[C@H](NP(=O)(OC[C@@]1(F)O[C@@H](n2ccc(N)nc2=O)C(F)(F)[C@@H]1O)Oc1ccccc1)C(=O)OCc1ccccc1 (some centres unmarked) [2b] |  |  | minimal antiviral activity |  | 
5 | C[C@H](NP(=O)(OC[C@H]1O[C@@H](n2ccc(N)nc2=O)C(F)(F)[C@@H]1O)Oc1ccccc1)C(=O)OCc1ccccc1 (stereo partly drawn) [2c, Benzyl ((((2R,3R,5R)-5-(4-Amino-2-oxopyrimidin-1(2H)-yl)-4,4-difluoro-3-hydroxytetrahydrofuran-2-yl)methoxy)(phenoxy)phosphoryl)-L-alaninate] |  |  | lack of activity |  | 
6 | CO[C@]1(CO)O[C@@H](n2ccc(=O)[nH]c2=O)C(F)(F)[C@@H]1O [12a] | completely devoid of activity | completely devoid of activity |  |  | 
7 | O=c1ccn([C@@H]2O[C@](F)(CO)[C@@H](O)C2(F)F)c(=O)[nH]1 [12b] | completely devoid of activity | completely devoid of activity |  |  | 
8 | Nc1ccn(C[C@@H](CO)OCP(=O)(O)O)c(=O)n1 [cidofovir] |  |  |  |  | CC50 [5]: 150 ± 29.1 µM
9 | Nc1nc(O)c2ncn(COC(CO)CO)c2n1 [ganciclovir] |  |  |  |  | CC50 [5]: 231 ± 49.2 µM
10 | Nc1ccn([C@@H]2O[C@H](CO)[C@@H](O)C2(F)F)c(=O)n1 [gemcitabine, 2′-deoxy-2′,2′-difluorocytidine, reference compound] |  |  |  | high cytotoxicity | EC50 [6]: 0.81 to 1.92 µM
